# According to patent US20100119595A1, “Monounsaturated fatty acids and perhydrocyclopentanophenanthrene nucleus combination molecules, and their precursors, and the use of all of these as weight-loss agents” (priority 2001, published 2010):
# Marks after values point to notes of the source that are not given here.
# Experiments:
# [1] = Dog weight-loss study, 2 hydroxyestrone oleate vs oleoyl-estrone (Example 10); assay type: in vivo; details: oral 21 days, 5, 3.33 or 2.5 micromoles/kg vs OE 10 micromoles/kg
# Description: Dogs are selected and initial measurements taken. The initial measurements include weight and electrical impedance for each dog as measured by a standard impedance measuring device with electrodes placed between the front and rear paws. The dogs are placed individually in appropriate cages and allowed an ad libitum diet of standard dog chow and water for a 10-day period. Daily measurements include the following: • 1. Weight • 2. Weight of food consumed • 3. Water consumed, both volume and weight
# Every other day, the dogs' electrical impedance is measured as an indicator of fat tissue content and loss. The dogs remain confined with out of cage activity or exercise for the duration of the experiment. This initial 10-day period establishes a pattern and average of weight gain, impedance change, and food and water consumption for each dog. […] This assures the dogs will readily accept the bread ball as a drug delivery device. […]
# An appropriate volume of either OE or 2HOE is placed into the center of a thick piece of dense sweet bread (non-porous), carefully rolled into a small ball so none of the compound leaks out, and sprinkled on the outer surface with sugar or syrup as determined above. […] Electrical impedance of each dog is measured every other day.
# [2] = Human study of estrone eicosenoate as anti-obesity drug (Example 3); assay type: in vivo; details: humans, oral capsule every morning, 0.75 or 0.375 micromoles/kg
# Description: • 1) The required number of subjects are properly screened to fulfill the necessary qualifications, • 2) appropriate laboratory evaluation are performed, • 3) various aspects of positive drug response in a manner acceptable for drug approval are recorded, • 4) adverse drug effects are documented, and • 5) patients are adequately followed-up.
# In this random, double-blind, placebo controlled study, subjects are selected to one of three groups and take a capsule orally every morning containing one of the following: a) sunflower oil (placebo), b) estrone eicosenoate dissolved in sunflower oil at a dose of 0.75 micromoles/kg, or c) estrone eicosenoate dissolved in sunflower oil at a dose of to 0.375 micromoles/kg.
# Subjects report weekly for measurements and assessment of any side effects. […]
# Different tests are performed at least five different times during each study, namely at the screening of potential participants, at the beginning of the study, weekly during the trials, at the end of the first 4 week period and at the end of the second 4 week treatment period. • 1) SCREENING: Subjects are screened to exclude hypothyroidism, pregnancy, and heart disease. […] Subjects selected to participate in the studies have the following initial measurements: WEIGHT, WAIST to HIP RATIO, HEIGHT, BMI (calculated), BODY FAT % & TOTAL BODY FAT (via bioelectrical impedance method). […]
# [3] = Rabbit 10-day oral study: body weight and food consumed (Example 1); details: for FINAL WT.: one rabbit; for WT. Δ w/ Rx 10 days: control +0.14
# Description: During the first 3 weeks, rabbits were only weighed and allowed to eat. On the fourth week, all rabbits were given 0.05 cc dose of peanut oil.
# Five New Zealand white rabbits were obtained and caged in their natural environment (outside) and fed a cafeteria, ad libitum diet of rabbit chow. […] The appropriate weights of OE or EE were diluted in peanut oil to provide concentrations as follows: 1) OE, 2 mg/0.05 cc; 2) EE, 1 mg/0.05 cc; 3) 0.33 mg/0.05 cc; 4) EE, 0.1mg/0.05 cc, 5) EE, 0.03 mg/0.05 cc
# For the initial three weeks, the rabbits were given no medicine or oil. Body weight and food consumed were measured daily; establishing a daily average for food consumed and weight change.
# Rabbits received the assigned dose for 10 consecutive days. Rabbit weight (kg) and food eaten (grams) were determined daily.
# [4] = EE 1 mg/d vs OE 2 mg/d, oral, rabbits
SMILES,weight loss compared with dogs receiving oleoyl-estrone [1],appetite [2],"weight loss, loss of body fat, and/or decrease of body fat% [2]","FINAL WT. ([3]; EE 0.03 mg/d oral in peanut oil, 10 days, initial wt 4.00 kg)","WT. Δ w/ Rx 10 days ([3]; EE 0.03 mg/d oral, 10 days, pre-Rx 10 day avg. +0.125)","FOOD/DAY AVG. w/ Rx ([3]; EE 0.03 mg/d oral, 10 days, pre-Rx avg 163.6)","FINAL WT. ([3]; EE 0.2 mg/d oral in peanut oil, 10 days, initial wt 3.50 kg)","FOOD/DAY AVG. w/ Rx ([3]; EE 0.2 mg/d oral, 10 days, pre-Rx avg 151.1)","FINAL WT. ([3]; EE 0.33 mg/d oral in peanut oil, 10 days, initial wt 4.09 kg)","WT. Δ w/ Rx 10 days ([3]; EE 0.33 mg/d oral, 10 days, pre-Rx 10 day avg. +0.139)","FOOD/DAY AVG. w/ Rx ([3]; EE 0.33 mg/d oral, 10 days, pre-Rx avg 151.6)","FINAL WT. ([3]; EE 1 mg/d oral in peanut oil, 10 days, initial wt 3.73 kg)","WT. Δ w/ Rx 10 days ([3]; EE 1 mg/d oral, 10 days, pre-Rx 10 day avg. +0.129)","FOOD/DAY AVG. w/ Rx ([3]; EE 1 mg/d oral, 10 days, pre-Rx avg 138.3)","amount of food eaten relative to the OE rabbit [3, 4]","weight loss relative to OE over a 10-day period [3, 4]","weight gained compared with the Control rabbit ([3]; EE at 1/10 the dose of OE (0.2 mg/d), 10 days)","weight gained compared with the control ([3]; EE at lowest dose (0.03 mg/d), 10 days)","weight loss less than that resulting from OE ([3]; EE at ⅙ the dose of OE (0.33 mg/d vs 2 mg/d), 10 days)"
"CCCCCCCC/C=C\CCCCCCCC(=O)Oc1cc2c(cc1O)[C@H]1CC[C@]3(C)C(=O)CC[C@H]3[C@@H]1CC2 [2HOE, 2 hydroxyestrone oleate]",greater weight loss,,,,,,,,,,,,,,,,,,
"CCCCCCCC/C=C\CCCCCCCCCC(=O)Oc1ccc2c(c1)CC[C@@H]1[C@@H]2CC[C@]2(C)C(=O)CC[C@@H]12 [EE, estrone eicosenoate]",,reduces appetite,produces weight loss,4.17* kg,+0.17 kg,158.5 grams,3.56 kg,131.0 grams,4.01 kg,−0.08 kg,150.4 grams,3.37 kg,−0.36 kg,31.9 grams,approximately ⅓,more than three times the weight loss,less than half the weight gained by the Control rabbit,gained more weight than even the control,20%
